Results published in patent publication US9832996B2, “Use of sarmentine and its analogues with an herbicide, and compositions thereof” (Marrone Bio Innovations, Inc., priority 2013, dated 2017).

Assays:
Format in all cases: in vivo
Conditions in all cases: 14 days after application
Poa pratensis [1] = test: Post-emergent spray of sarmentine and amicarbazone on grass seedlings, fresh weight and Colby synergy
Method: (§1) Post-emergent effects of sarmentine and amicarbazone were evaluated on annual bluegrass (Poa annua), Kentucky bluegrass (Poa pratensis), Perennial ryegrass (Lolium perenne), Tall fescue (Festuca arundinacea) and Creeping Bentgrass (Agrostis stolonifera). For each of the five species tested, fifteen seedlings at the 1-2 leaf stage, in 2.5 cm square pots containing plant growth mix, were sprayed with two suboptimal doses of sarmentine, two suboptimal doses of amicarbazone, or a factorial combination thereof, as shown in Tables 4-8. A volume of 40 gal/Acre was applied, using a cabinet track sprayer. Negative controls were sprayed with water. Pots were randomly placed in a growth room at 25° C. and 50% relative humidity, and watered as necessary. Treatments were arranged in a 2 k factorial design with three repeat measures and evaluated for fresh weight at 14 days after application. Potential synergy was evaluated by calculating the ratio of observed (E) to expected (Ee) percent of control weight, according to Colby's formula. Colby (1967) Weeds 15:20-22. Percent control was calculated in relation to the untreated control (0% control) with 100% control denoting no living green tissue remaining at 14 days after treatment. An E/Ee score above 1.0 indicates a synergistic interaction between two substances.

Lolium perenne = test: as above
Method: as §1

Agrostis stolonifera [2] = test: as above
Method: as §1

Poa annua [3] = test: as above
Method: as §1

Festuca arundinacea = test: as above
Method: as §1

Poa pratensis [4] = test: Post-emergent spray of sarmentine and paclobutrazol on grass seedlings, fresh weight and Colby synergy
Method: as §1, with “paclobutrazol” for “amicarbazone”, “pratensis),” for “pratensis), Perennial ryegrass (Lolium perenne), Tall fescue (Festuca arundinacea)”, “three” for “five”, “paclobutrazol,” for “amicarbazone,”, “1-3.” for “4-8.”

Agrostis stolonifera [5] = test: as above
Method: as §1, with “paclobutrazol” for “amicarbazone”, “pratensis),” for “pratensis), Perennial ryegrass (Lolium perenne), Tall fescue (Festuca arundinacea)”, “three” for “five”, “paclobutrazol,” for “amicarbazone,”, “1-3.” for “4-8.”

Poa annua [6] = test: as above
Method: as §1, with “paclobutrazol” for “amicarbazone”, “pratensis),” for “pratensis), Perennial ryegrass (Lolium perenne), Tall fescue (Festuca arundinacea)”, “three” for “five”, “paclobutrazol,” for “amicarbazone,”, “1-3.” for “4-8.”

[7] = paclobutrazol 0.0467 mg/ml alone
[8] = paclobutrazol 0.293 mg/ml alone
[9] = paclobutrazol 0.042 mg/ml alone
[10] = paclobutrazol 0.481 mg/ml alone

CCCCC/C=C/C=C/C(=O)N1CCCC1 [Sarmentine, N-(2E,4E-Decadienoyl) pyrrolidine]
% Control (Poa pratensis [1]; sarmentine 19.15 mg/ml alone): 9.6% | AVG Fresh Weight (Poa pratensis [1]; sarmentine 19.15 mg/ml alone): 0.72 g | % Control (Poa pratensis [1]; sarmentine 23.553 mg/ml alone): 9.9% | AVG Fresh Weight (Poa pratensis [1]; sarmentine 23.553 mg/ml alone): 0.72 g | % Control (Lolium perenne; sarmentine 10 mg/ml alone): 17.7% | AVG Fresh Weight (Lolium perenne; sarmentine 10 mg/ml alone): 1.14 g | % Control (Lolium perenne; sarmentine 20 mg/ml alone): 10.6% | AVG Fresh Weight (Lolium perenne; sarmentine 20 mg/ml alone): 1.24 g | % Control (Agrostis stolonifera [2]; sarmentine 17.43 mg/ml alone): 0.0% | AVG Fresh Weight (Agrostis stolonifera [2]; sarmentine 17.43 mg/ml alone): 0.59 g | % Control (Agrostis stolonifera [2]; sarmentine 24.72 mg/ml alone): 30.8% | AVG Fresh Weight (Agrostis stolonifera [2]; sarmentine 24.72 mg/ml alone): 0.48 g | % Control (Poa annua [3]; sarmentine 12.47 mg/ml alone): 10.3% | Avg Fresh Weight (Poa annua [3]; sarmentine 12.47 mg/ml alone): 0.85 g | % Control (Poa annua [3]; sarmentine 17.11 mg/ml alone): 23.0% | Avg Fresh Weight (Poa annua [3]; sarmentine 17.11 mg/ml alone): 0.73 g | % Control (Festuca arundinacea; sarmentine 10.27 mg/ml alone): 28.4% | AVG Fresh Weight (Festuca arundinacea; sarmentine 10.27 mg/ml alone): 1.8 g | % Control (Festuca arundinacea; sarmentine 33.98 mg/ml alone): 40.4% | AVG Fresh Weight (Festuca arundinacea; sarmentine 33.98 mg/ml alone): 1.5 g | % Control (Poa pratensis [4]; sarmentine 19.15 mg/ml alone): 11.3% | AVG Fresh Weight (Poa pratensis [4]; sarmentine 19.15 mg/ml alone): 0.6 g | % Control (Poa pratensis [4]; sarmentine 23.553 mg/ml alone): 7.5% | AVG Fresh Weight (Poa pratensis [4]; sarmentine 23.553 mg/ml alone): 0.7 g | % Control (Agrostis stolonifera [5]; sarmentine 17.43 mg/ml alone): 6.4% | AVG Fresh Weight (Agrostis stolonifera [5]; sarmentine 17.43 mg/ml alone): 0.63 g | % Control (Agrostis stolonifera [5]; sarmentine 24.72 mg/ml alone): 20.6% | AVG Fresh Weight (Agrostis stolonifera [5]; sarmentine 24.72 mg/ml alone): 0.53 g | % Control (Poa annua [6]; sarmentine 12.47 mg/ml alone): 0.0% | AVG Fresh Weight (Poa annua [6]; sarmentine 12.47 mg/ml alone): 0.71 g | % Control (Poa annua [6]; sarmentine 17.114 mg/ml alone): 10.0% | AVG Fresh Weight (Poa annua [6]; sarmentine 17.114 mg/ml alone): 0.54 g

CC(C)(C)[C@@H](O)[C@@H](Cc1ccc(Cl)cc1)n1cncn1 (racemic) [Paclobutrazol]
% Control (Poa pratensis [4]; [7]): 14.2% | AVG Fresh Weight (Poa pratensis [4]; [7]): 0.6 g | % Control (Poa pratensis [4]; [8]): 0.0% | AVG Fresh Weight (Poa pratensis [4]; [8]): 0.7 g | % Control (Agrostis stolonifera [5]; [9]): 0.0% | AVG Fresh Weight (Agrostis stolonifera [5]; [9]): 0.76 g | % Control (Agrostis stolonifera [5]; [10]): 2.3% | AVG Fresh Weight (Agrostis stolonifera [5]; [10]): 0.65 g | % Control (Poa annua [6]; paclobutrazol 0.84 mg/ml alone): 20.8% | AVG Fresh Weight (Poa annua [6]; paclobutrazol 0.84 mg/ml alone): 0.48 g | % Control (Poa annua [6]; paclobutrazol 1.37 mg/ml alone): 7.9% | AVG Fresh Weight (Poa annua [6]; paclobutrazol 1.37 mg/ml alone): 0.55 g

CC(C)c1nn(C(=O)NC(C)(C)C)c(=O)n1N [Amicarbazone]
% Control (Poa pratensis [1]; amicarbazone 0.31 mg/ml alone): 0.0% | AVG Fresh Weight (Poa pratensis [1]; amicarbazone 0.31 mg/ml alone): 0.84 g | % Control (Poa pratensis [1]; amicarbazone 0.544 mg/ml alone): 29.1% | AVG Fresh Weight (Poa pratensis [1]; amicarbazone 0.544 mg/ml alone): 0.56 g | % Control (Lolium perenne; amicarbazone 1.03 mg/ml alone): 30.9% | AVG Fresh Weight (Lolium perenne; amicarbazone 1.03 mg/ml alone): 0.96 g | % Control (Lolium perenne; amicarbazone 1.903 mg/ml alone): 35.7% | AVG Fresh Weight (Lolium perenne; amicarbazone 1.903 mg/ml alone): 0.89 g | % Control (Agrostis stolonifera [2]; amicarbazone 0.251 mg/ml alone): 19.6% | AVG Fresh Weight (Agrostis stolonifera [2]; amicarbazone 0.251 mg/ml alone): 0.56 g | % Control (Agrostis stolonifera [2]; amicarbazone 0.481 mg/ml alone): 29.7% | AVG Fresh Weight (Agrostis stolonifera [2]; amicarbazone 0.481 mg/ml alone): 0.49 g | % Control (Poa annua [3]; amicarbazone 1.53 mg/ml alone): 39.4% | Avg Fresh Weight (Poa annua [3]; amicarbazone 1.53 mg/ml alone): 0.57 g | % Control (Poa annua [3]; amicarbazone 2.79 mg/ml alone): 46.0% | Avg Fresh Weight (Poa annua [3]; amicarbazone 2.79 mg/ml alone): 0.51 g | % Control (Festuca arundinacea; amicarbazone 0.315 mg/ml alone): 8.1% | AVG Fresh Weight (Festuca arundinacea; amicarbazone 0.315 mg/ml alone): 2.3 g | % Control (Festuca arundinacea; amicarbazone 1.228 mg/ml alone): 10.2% | AVG Fresh Weight (Festuca arundinacea; amicarbazone 1.228 mg/ml alone): 2.2 g
